Reference: patent publication US4977173A, “Aminomethyl oxooxazolidinyl ethenylbenzene derivatives useful as antibacterial agents” (E. I. Du Pont de Nemours and Company, priority 1989, dated 1990)
Converted amounts (≈) assume the structure as drawn. Like-named read-outs stand apart in the source and are kept apart here.

Assays:
[1] = test system: Staphylococcus aureus; experiment: In vitro broth microdilution minimal inhibitory concentration (24-hour MIC), Staphylococcus aureus; format: cell-based; settings: Mueller-Hinton broth, standard microdilution; for MIC: read-out: Minimum Inhibitory Concentration
Source text: (§1) As shown in Table VII compounds of formula I exert an in vitro antibacterial effect.

[2] = test system: Escherichia coli; experiment: In vitro broth microdilution minimal inhibitory concentration (24-hour MIC), Escherichia coli; format: cell-based; settings: Mueller-Hinton broth, standard microdilution; for MIC: read-out: Minimum Inhibitory Concentration
Source text: as §1

[3] = test system: Staphylococcus aureus; experiment: In vivo activity against Staphylococcus aureus in an acute lethal mouse model; settings: mice infected intraperitoneally, dosed one and four hours post-infection, survival on seventh day
Procedure: Determinations of in vivo efficacy are performed by inoculating mice intraperitoneally with cultures of the infecting organism diluted to produce 100% mortality in control animals within twenty-four hours. The culture of S. aureus used to infect the animals was diluted to the required bacterial density using 5% aqueous hog gastric mucin. The compounds are dissolved or suspended in 0.25% aqueous Methocel® (Methocel®: Hydroxypropyl Methylcellulose, E15 Premium, Dow Chemical Company) for oral administration or sterile distilled water containing 5% dimethylsulfoxide (Fisher Scientific Company, Fairlawn, N.J.) for subcutaneous administration. The mice are dosed at one hour and at four hours post-infection. Mortality is recorded daily until test termination seven days post infection. The number of survivors in each treatment group on the seventh day after infection is used in the calculation of the ED50, the dose of compound that protects 50% of the mice (Litchfield, J. T. and Wildoxon. A simplified method for evaluating dose-effect experiments. J. Pharmacol Exp. Ther., 96:99-113, 1949).

[4] = Staphylococcus aureus, 168 h, Oral Administration, read-out: ED50
[5] = Staphylococcus aureus, sc, 168 h, Subcutaneous Administration, read-out: ED50
[6] = Subcutaneous Administration, 10080 min

Row | SMILES | MIC [1] [µg/mL] | MIC [2] [µg/mL] | ED50 [3, 4] [mg/kg] | ED50 [3, 5] [mg/kg] | Minimum Inhibitory Concentration [1] [µg/mL] | ED50 ([3]; Oral Administration, 10080 min) [mg/kg] | ED50 [3, 6] [mg/kg] | Minimum Inhibitory Concentration [2] [µg/mL]
1 | CC(=O)NC[C@H]1CN(c2ccc(/C(C)=C\C#N)cc2)C(=O)O1 [Example 13] | 8 (≈ 26.7 µM) | > 128 | – | – | – | – | – | –
2 | CC(=O)NC[C@H]1CN(c2ccc(/C(C)=C(\C)C#N)cc2)C(=O)O1 [Example 9] | 2 (≈ 6.38 µM) | > 128 | 3.8 | 2.5 | – | – | – | –
3 | CC(=O)NCC1CN(c2ccc(/C(=C/C#N)c3ccccc3)cc2)C(=O)O1 (racemic) [Example 5] | 32 (≈ 88.5 µM) | > 128 | > 90 | > 90 | – | – | – | –
4 | CC(=O)NC[C@H]1CN(c2ccc(/C=C/[N+](=O)[O-])cc2)C(=O)O1 [Example 19, (l)-N-[3-[4-(E-Nitroethenyl)phenyl]-2-oxooxazolidin-5-ylmethyl]acetamide] | 8 (≈ 26.2 µM) | > 128 | > 90 | > 90 | – | – | – | –
5 | CC(=O)NC[C@H]1CN(c2ccc(C=C(C#N)C#N)cc2)C(=O)O1 [Example 26] | 16 (≈ 51.6 µM) | > 128 | > 90 | > 90 | – | – | – | –
6 | CC(=O)NC[C@H]1CN(c2ccc(/C(C)=C/C#N)c(C)c2)C(=O)O1 [Example 3] | 2 (≈ 6.38 µM) | > 128 | 6.4 | 5.1 | – | – | – | –
7 | CCC/C(=C\C#N)c1ccc(N2C[C@H](CNC(C)=O)OC2=O)cc1 [Example 8] | 2 (≈ 6.11 µM) | > 128 | > 90 | > 90 | – | – | – | –
8 | CC(=O)/C=C/c1ccc(N2C[C@H](CNC(C)=O)OC2=O)cc1 [Example 60] | 4 (≈ 13.2 µM) | > 128 | – | 51.9 | – | – | – | –
9 | CC(=O)NC[C@H]1CN(c2ccc(/C(C)=C/C#N)cc2)C(=O)O1 [Example 1, (l)-N-[3-[4-(E-1-Methyl-2-cyanoethenyl)phenyl]-2-oxooxazolidin-5-ylmethyl]acetamide] | 1 (≈ 3.34 µM) | > 128 | 1.3 | 0.8 | – | – | – | –
10 | CC(=O)NC[C@H]1CN(c2ccc(/C=C(\C)C#N)cc2)C(=O)O1 [Example 12] | 1 (≈ 3.34 µM) | > 128 | 2.9 | 1.9 | – | – | – | –
11 | COC(=O)/C=C/c1ccc(N2C[C@H](CNC(C)=O)OC2=O)cc1 [Example 59] | 8 (≈ 25.1 µM) | > 128 | – | > 90 | – | – | – | –
12 | COC(=O)/C=C(\C)c1ccc(N2C[C@H](CNC(C)=O)OC2=O)cc1 [Example 58, (l)-N-[3-[4-(E-1-Methyl-2-carbomethoxyethenyl)phenyl]-2-oxooxazolidin-5-ylmethyl]acetamide] | 2 (≈ 6.02 µM) | > 128 | – | 46.2 | – | – | – | –
13 | CC(=O)NC[C@H]1CN(c2ccc(/C(C)=C/C(N)=O)cc2)C(=O)O1 [Example 23, (l)-N-[3-[4-(E-1-Methyl-2-carbamidoethenyl)phenyl]-2-oxooxazolidin-5-ylmethyl]acetamide] | 4 (≈ 12.6 µM) | > 128 | 26.4 | 36.2 | – | – | – | –
14 | CC(=O)NC[C@H]1CN(c2ccc(C3=CC(=O)CCC3)cc2)C(=O)O1 [Example 68] | 0.5 (≈ 1.52 µM) | > 128 | 2.4 | 1.7 | – | – | – | –
15 | CC/C(=C\c1ccc(N2C[C@H](CNC(C)=O)OC2=O)cc1)[N+](=O)[O-] [Example 29] | 1 (≈ 3 µM) | > 128 | > 90 | > 90 | – | – | – | –
16 | CC(=O)NC[C@H]1CN(c2ccc(/C=C/C#N)cc2)C(=O)O1 [Example 2, (l)-N-[3-[4-(E-2-Cyanoethenyl)phenyl]-2-oxooxazolidin-5-ylmethyl]acetamide] | 4 (≈ 14 µM) | > 128 | 3.5 | 2.8 | – | – | – | –
17 | CCOC(=O)/C=C/c1ccc(N2C[C@H](CNC(C)=O)OC2=O)cc1 [Example 22, (l)-N-[3-[4-(E-2-Carboethoxyethenyl)-phenyl]-2-oxooxazolidin-5-ylmethyl]acetamide] | 8 (≈ 24.1 µM) | > 128 | > 90 | > 90 | – | – | – | –
18 | CC(=O)NC[C@H]1CN(c2ccc(/C=C/C(=O)N(C)C)cc2)C(=O)O1 [Example 61] | 32 (≈ 96.6 µM) | > 128 | – | 39.5 | – | – | – | –
19 | CC/C(=C\C#N)c1ccc(N2C[C@H](CNC(C)=O)OC2=O)cc1 [Example 7] | 1 (≈ 3.19 µM) | > 128 | 3.1 | 2.1 | – | – | – | –
20 | CC(=O)NC[C@H]1CN(c2ccc(/C=C(\C)[N+](=O)[O-])cc2)C(=O)O1 [Example 20, (l)-N-[3-[4-(E-2-Nitro-2-methylethenyl)phenyl]-2-oxooxazolidin-5-ylmethyl]acetamide] | 0.1 (≈ 0.313 µM) | > 128 | 14.1 | 9.1 | – | – | – | –
21 | CC(=O)NC[C@H]1CN(c2ccc(/C=C/C=O)cc2)C(=O)O1 [Example 25, (l)-N-[3-[4-(E-2-Formylethenyl)phenyl]-2-oxooxazolidin-5-ylmethyl]acetamide] | 0.5 (≈ 1.73 µM) | > 128 | > 80 | > 80 | – | – | – | –
22 | CC(=O)NC[C@H]1CN(c2ccc(/C=C/C(N)=O)cc2)C(=O)O1 [Example 62] | 32 (≈ 105 µM) | > 128 | – | 20.4 | – | – | – | –
23 | CC(=O)NC[C@H]1CN(c2ccc(/C(=C/C#N)c3ccc(F)cc3)cc2)C(=O)O1 [Example 6] | > 128 | > 128 | – | – | – | – | – | –
24 | CC(=O)NC[C@H]1CN(c2ccc(C=C(C(C)=O)C(C)=O)cc2)C(=O)O1 [Example 28] | 16 (≈ 46.5 µM) | > 128 | > 90 | > 90 | – | – | – | –
25 | CSC(C#N)=Cc1ccc(N2CC(CNC(C)=O)OC2=O)cc1 (centres unmarked) [Example 21, (l)-N-[3-(4-(2-Cyano-2-methylsulfenylethenyl)phenyl]-2-oxooxazolidin-5-ylmethyl]acetamide] | – | – | – | – | 4 | > 90 | 11.8 | > 128
26 | CCC/C(=C\c1ccc(N2C[C@H](CNC(C)=O)OC2=O)cc1)[N+](=O)[O-] [Example 30] | 4 (≈ 11.5 µM) | > 128 | > 90 | > 90 | – | – | – | –
27 | CSC=Cc1ccc(N2CC(CNC(C)=O)OC2=O)cc1 (centres unmarked) [Example 24, (l)-N-[3-[4-(2-Methylsulfenylethenyl)-phenyl]-2-oxooxazolidin-5-ylmethyl]acetamide] | – | – | – | – | 8 | 33.3 | 14.6 | > 128
28 | CC(=O)NC[C@H]1CN(c2ccc(/C(C)=C(/C)C#N)cc2)C(=O)O1 [Example 11] | 8 (≈ 25.5 µM) | > 128 | – | – | – | – | – | –
